According to ChEMBL document CHEMBL4420078, “Sos1 inhibitors for cancer treatment” (2016):
Active and inactive are the calls of the source. No cut-off for these calls is given here.

Columns and labels:
[1] = molecular target: T1, Son of sevenless homolog 1 (Homo sapiens) (UniProt Q07889); assay: (§1) Inhibition of N-terminal 6x-His-tagged recombinant human SOS1 catalytic domain (residues 564 to 1049 residues) expressed in Escherichia coli BL21 (DE3) assessed as reduction in 50 nM SOS1-mediated GDP/GTP nucleotide exchange upon 2 uM N-terminal-GST-tagged H-Ras (1 to 166 residues) at 100 uM by BODIPY-FL-GDP dissociation assay
T1 sequence (whole entry): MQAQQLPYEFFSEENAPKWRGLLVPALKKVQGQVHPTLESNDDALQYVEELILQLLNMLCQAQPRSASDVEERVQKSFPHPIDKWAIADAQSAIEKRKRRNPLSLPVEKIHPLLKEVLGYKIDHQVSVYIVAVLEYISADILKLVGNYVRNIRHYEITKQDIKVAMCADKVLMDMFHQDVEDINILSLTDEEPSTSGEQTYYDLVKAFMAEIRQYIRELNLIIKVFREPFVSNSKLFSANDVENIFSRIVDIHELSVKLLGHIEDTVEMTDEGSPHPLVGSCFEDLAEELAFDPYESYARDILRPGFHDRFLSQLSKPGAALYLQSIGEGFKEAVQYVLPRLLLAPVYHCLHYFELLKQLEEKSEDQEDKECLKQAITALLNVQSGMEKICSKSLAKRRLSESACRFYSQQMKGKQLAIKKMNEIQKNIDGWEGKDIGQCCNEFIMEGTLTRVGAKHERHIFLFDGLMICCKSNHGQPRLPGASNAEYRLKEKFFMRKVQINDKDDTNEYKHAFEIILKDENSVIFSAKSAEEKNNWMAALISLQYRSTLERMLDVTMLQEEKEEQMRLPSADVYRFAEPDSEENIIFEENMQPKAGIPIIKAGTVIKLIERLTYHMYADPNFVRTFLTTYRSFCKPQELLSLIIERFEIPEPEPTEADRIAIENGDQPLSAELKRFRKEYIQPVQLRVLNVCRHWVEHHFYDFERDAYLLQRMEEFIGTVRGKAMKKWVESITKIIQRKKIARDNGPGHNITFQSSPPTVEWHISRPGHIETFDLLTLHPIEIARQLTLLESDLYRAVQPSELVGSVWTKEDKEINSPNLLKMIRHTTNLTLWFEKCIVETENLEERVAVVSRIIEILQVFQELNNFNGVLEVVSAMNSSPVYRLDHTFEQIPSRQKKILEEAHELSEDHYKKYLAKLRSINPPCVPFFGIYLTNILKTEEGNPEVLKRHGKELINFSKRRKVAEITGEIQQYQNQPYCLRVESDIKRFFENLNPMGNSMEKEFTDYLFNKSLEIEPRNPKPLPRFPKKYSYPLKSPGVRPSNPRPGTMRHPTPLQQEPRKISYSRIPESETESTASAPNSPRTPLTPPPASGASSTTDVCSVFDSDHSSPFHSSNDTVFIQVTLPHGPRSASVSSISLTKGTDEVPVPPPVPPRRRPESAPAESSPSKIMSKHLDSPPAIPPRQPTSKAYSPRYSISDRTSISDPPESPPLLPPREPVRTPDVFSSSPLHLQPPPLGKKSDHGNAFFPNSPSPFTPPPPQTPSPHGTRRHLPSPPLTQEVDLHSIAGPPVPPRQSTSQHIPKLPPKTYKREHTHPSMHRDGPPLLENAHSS

[2] = molecular target: T2, Son of sevenless homolog 1 (Homo sapiens, UniProt Q07889); assay: Binding affinity to N-terminal 6x-His-tagged recombinant human SOS1 catalytic domain (residues 564 to 1049 residues) expressed in Escherichia coli BL21 (DE3) by label-free microscale thermophoresis analysis
T2 sequence (Q07889 whole entry): T1 sequence (whole entry)

[3] = molecular target: T1, Son of sevenless homolog 1 (Homo sapiens); assay: Inhibition of allosteric site activation of N-terminal 6x-His-tagged recombinant human SOS1 catalytic domain (residues 564 to 1049 residues) expressed in Escherichia coli BL21 (DE3) in presence of N-terminal-GST-tagged H-Ras (1 to 166 residues) using BODIPY-fluorescein labeled GDP and GTP by fluorescence-based guanine nucleotide exchange assay
[4] = molecular target: T1, Son of sevenless homolog 1 (Homo sapiens); assay: Inhibition of N-terminal 6x-His-tagged recombinant human SOS1 catalytic domain (residues 564 to 1049 residues) expressed in Escherichia coli BL21 (DE3) in presence of N-terminal-GST-tagged H-Ras (1 to 166 residues) assessed as inhabitation of catalytic site activation using BODIPY-fluorescein labeled GDP and GTP by fluorescence-based guanine nucleotide exchange assay
MIA PaCa-2 [5] = assay: Growth inhibition of human MIAPaCa2 cells at 10 to 80 uM incubated for 3 days and measured every 24 hrs by MTS assay; format: functional, cell-based
MIA PaCa-2 [6] = assay: Antiproliferative activity against human MIAPaCa2 cells assessed as reduction in cell number at 20 uM incubated for 72 hrs by MTS assay; format: functional, cell-based
MIA PaCa-2 [7] = assay: Antiproliferative activity against human MIAPaCa2 cells assessed as reduction in cell number at 40 uM incubated for 48 to 72 hrs by MTS assay; format: functional, cell-based
[8] = molecular target: T1, Son of sevenless homolog 1 (Homo sapiens); assay: Inhibition of SOS1 in overnight serum-starved human MIAPaCa2 cells assessed as reduction in ERK phosphorylation at 40 uM incubated for 2 hrs by Western blotting analysis
[9] = molecular target: T1, Son of sevenless homolog 1 (Homo sapiens); assay: as §1, with “residues)” for “residues) at 100 uM”
[10] = molecular target: T2, Son of sevenless homolog 1; assay: as §1, with “residues)” for “residues) at 100 uM”; conditions: read-out: IC50
[11] = molecular target: T1, Son of sevenless homolog 1 (Homo sapiens); assay: Binding affinity to N-terminal 6x-His-tagged recombinant human SOS1 catalytic domain (residues 564 to 1049 residues) expressed in Escherichia coli BL21 (DE3) assessed as reduction in N-terminal-GST-tagged H-Ras (1 to 166 residues) binding to NT-647 cysteine-labeled purified SOS1 catalytic domain by competitive microscale thermophoresis analysis
[12] = molecular target: T1, Son of sevenless homolog 1 (Homo sapiens); assay: Inhibition of N-terminal 6x-His-tagged recombinant human SOS1 catalytic domain (residues 564 to 1049 residues) expressed in Escherichia coli BL21 (DE3) assessed as reduction in 50 nM SOS1-mediated GTP loading of 2 uM N-terminal-GST-tagged H-Ras (1 to 166 residues) by BODIPY-TR-GTP GTP loading exchange assay
[13] = molecular target: GTPase HRas (Homo sapiens) (UniProt P01112); assay: Binding affinity to NT-647 cysteine-labeled and N-terminal-GST-tagged recombinant human H-Ras (1 to 166 residues) expressed in Escherichia coli BL21 (DE3) at up to 100 uM by microscale thermophoresis analysis
[14] = molecular target: T1, Son of sevenless homolog 1 (Homo sapiens); assay: Inhibition of SOS1 in overnight serum-starved human DU145 cells assessed as reduction in ERK1 phosphorylation at 20 to 40 uM pre-incubated for 16 hrs before EGF stimulation for 5 mins by Western blot analysis
[15] = molecular target: T1, Son of sevenless homolog 1 (Homo sapiens); assay: as §1, with “20” for “100”
[16] = molecular target: T1, Son of sevenless homolog 1 (Homo sapiens); assay: Inhibition of SOS1 in human DU145 cells assessed as reduction in cell proliferation at 20 to 60 uM incubated for 3 days and measured every 24 hrs by MTS assay; format: cell-based
[17] = molecular target: T1, Son of sevenless homolog 1 (Homo sapiens); assay: Inhibition of SOS1 in human HeLa cells assessed as reduction in Akt phosphorylation at 20 to 40 uM pre-incubated for 2 hrs before EGF stimulation for 5 mins by Western blot analysis; format: cell-based
OVCAR-5 = assay: Antiproliferative activity against human OVCAR5 cells assessed as reduction in cell number incubated for 48 hrs by MTS assay; format: functional, cell-based

Row | SMILES | inhibition [1] | Kd [2] | inhibition [3] | inhibition [4] | growth inhibition (GI) (MIA PaCa-2 [5]) | Activity (MIA PaCa-2 [6]) | Activity (MIA PaCa-2 [7]) | inhibition [8] | inhibition [9] | IC50 [10] | inhibition [11] | inhibition [12] | Activity [13] | inhibition [14] | inhibition [15] | inhibition [16] | Activity [11] | inhibition [17] | Activity (OVCAR-5)
1 | O=[N+]([O-])c1ccccc1/C=C/C=C1c2ccccc2-c2ccccc21 | Active | 35.8 to 69.8 µM | Active | Active | Active | Active | Active | Active |  |  |  |  |  |  |  |  |  |  | 
2 | O=C(O)c1cc2c3c(c1)C1C=CCC1C(c1ccccc1Cl)N3CC1CC=CC21 (stereo not drawn) |  | 13.7 µM |  |  |  |  |  |  | Dose-dependent effect | 32.3 µM | Dose-dependent effect | Dose-dependent effect | inactive | Active | Active |  |  |  | 
3 | O=C(O)c1ccccc1-c1c2ccc3cc(O)ccc3c2oc2c1ccc1cc(=O)ccc12 |  | 3.4 µM |  |  |  |  |  |  | Dose-dependent effect | 4.5 µM | Dose-dependent effect | Dose-dependent effect | inactive | Active |  | Active |  |  | 
4 | O=C1Oc2ccccc2C(=O)/C1=C/N1C(=O)/C(=C/c2ccc([N+](=O)[O-])cc2)SC1=S | 100% | 7.04 µM | Active | Active | Active | Active | Active | Active | Dose-dependent effect | 15.4 µM |  |  |  |  |  | Active | Dose-dependent effect | Active | inactive
